Test results as given in US11505581B2, “Antigens and T cell epitopes from cockroach and methods of making and using same” (La Jolla Institute for Allergy and Immunology, priority 2015, dated 2022).

System: PBMC
Assay: ELISPOT (IFNγ, IL-5, IL-10, IL-17, IL-21) of PBMC expanded 14 days with Bla g extract, then stimulated with peptides or peptide pools
Type: cell-based, human
Set-up: key to Average Magnitude of Response: spot forming cells (SFC) per 10^6 PBMC; Response Rate per Subject: unit not given here; key to % (percentage of subjects responding to given antigen) / SFC (mean magnitude of response): “—” denotes no response
Conditions: for T cell reactivity (cytokine release) to NBGA, in words: sensitized subjects, 2-week extract stimulation; for Average Magnitude of Response / Response Rate per Subject: non-redundant epitopes, sensitized donors
Method: PBMC Isolation and Cell Cultures: PBMC (peripheral blood mononuclear cells) were isolated from 450 mL (one unit) of blood by density gradient centrifugation as described and cryopreserved. For in vitro expansion of PBMC for peptide screening, cells were cultured in RPMI1640 (Omega Scientific)+5% human AB serum (Gemini Bioscience), GlutaMAX (Gibco), and penicillin/streptomycin (Omega Scientific) at 2×10^6 per mL, stimulated with 10 ug/mL Bla g extract (Greer), and incubated at 37° C. in 5% CO2. Every three days, IL-2 and IL-7 (10 U/mL) were added to the cultures. Cells were harvested for peptide screening at day 14.
ELISPOT Assays: Production of IFNγ, IL-5, IL-17, IL-10, and IL-21 (as representative of TH1, TH2, TH17, TR1, and […], respectively) in response to peptide stimulation was measured by ELISPOT as described previously. […] In brief, 1×10^5 cells per well were incubated with peptide, peptide pool, or Bla g extract (10, 5, and 10 ug/ml, respectively) on anti-lymphokine antibody coated ELISPOT plates (Millipore #MSIPS4510) for 22 hours. Subsequently, secondary anti-lymphokine antibodies were added and incubated for 2 hours, washed, and avidin-peroxidase complex added for 1 hour. Plates were washed and spots developed with 3-amino-9-ethylcarbazole (Sigma #A6926) and Vector Blue (Vector #SK-5300) for IFNγ/IL-5 and IL-10/IL-17 dual plates or TMB (Sigma #T0565) for single IL-21. Criteria for peptide pool positivity were at least 100 spot forming cells (SFC) per 10^6 PBMC, p<0.05, and stimulation index≥2. Criteria for peptide positivity were identical except with a threshold of 20 SFCs.
We synthetized overlapping peptide sets of 15 amino acids in length overlapping by 10 residues and covering the entire sequence of known Bla g Allergens, i.e. Bla g 1-7, 9 and 11, referred from hereafter collectively as BLAGA. A total of 809 BLAGA peptides were arranged in pools, encompassing on average 20 peptides.
To assess T cell reactivity, we utilized a strategy applied to the definition of epitopes from various allergen sources^15,16 utilizing in vitro stimulation with allergen extracts. Here, PBMC from each subject were stimulated in vitro with Bla g extract. After 14 days, pools of overlapping 15-mer peptides from the BLAGA were tested for responses, and positive pools deconvoluted to identify the specific epitopes. As readout, we utilized ELISPOT assays specific for IL-5, IFNγ, IL-10, IL-17 and IL-21, chosen as representative of TH2, TH1, TR1, TH17 and TFH reactivity, respectively.

[1] = Asthmatic (combines IA, MMA, SA)

| Substance | Average Magnitude of Response | Response Rate per Subject | further results |
| --- | --- | --- | --- |
| Receptor for activated protein kinase C [RACK1] |  |  | % (percentage of subjects responding to given antigen) (AR): —; SFC (mean magnitude of response) (AR): —; % (percentage of subjects responding to given antigen) [1]: 9%; SFC (mean magnitude of response) [1]: 19 SFC; % (percentage of subjects responding to given antigen) (Controls): 2%; SFC (mean magnitude of response) (Controls): 30 SFC; % (percentage of subjects responding to given antigen) (IA): 12%; SFC (mean magnitude of response) (IA): 31 SFC; % (percentage of subjects responding to given antigen) (MMA): 11%; SFC (mean magnitude of response) (MMA): 3 SFC; % (percentage of subjects responding to given antigen) (SA): —; SFC (mean magnitude of response) (SA): —; T cell reactivity (cytokine release) to NBGA, in words: Significant reactivity |
| PNLKPSMPFGKTPVL | 4.2 | 2.9 |  |
| MIVDTISDFRAAIAN (listed as Blattella germanica) | 91.4 | 7.1 |  |
| HTKLSSSSSITLTLP | 6.2 | 5.7 |  |
| FQINLDFKNHNGFIR | 52.0 | 1.4 |  |
| DPSIHVLKMVAELTH | 3.4 | 1.4 |  |
| AQIQVVIHLDEQYIY | 4.6 | 5.7 |  |
| ERYQLVSYNLNSRSG | 3.4 | 1.4 |  |
| KELVEKYGKGKAIFI | 3.4 | 2.9 |  |
| TGILYKARLSLDRNE | 4.3 | 2.9 |  |
| NTTFSNASAVIQEFL | 4.2 | 5.7 |  |
| QKKWDPLKKETIPYY | 7.7 | 4.3 |  |
| KAAVHLLVAVKASKE | 4.4 | 1.4 |  |
| MGVQKFWAFDNTTFS | 7.3 | 7.1 |  |
| HMAKEDLVANQPNLK (listed as Blattella germanica) | 68.8 | 4.3 |  |
| LNQEAHYQFDSIHKF | 22.6 | 2.9 |  |
| KAIFIKCDVTNIPEF | 9.3 | 7.1 |  |
| DENSKQKKWDPLKKE | 10.3 | 5.7 |  |
| HHQRLFMVQSLERVV | 3.1 | 2.9 |  |
| HYQFDSIHKFEFASK | 24.4 | 1.4 |  |
| MNITGSINLMFSQMY | 7.6 | 5.7 |  |
| AAIANYHYDADENSK | 26.2 | 11.4 |  |
| STSLVKAHSMRNSAS | 19.9 | 4.3 |  |
| KLYKMAVAFMLAYPY | 15.8 | 7.1 |  |
| SEVTALNRQIGGTPI | 3.9 | 2.9 |  |
| VYEVAIPDRLTLRVE | 3.4 | 2.9 |  |
| NYAIVEGCPAAANGH (listed as Blattella germanica) | 64.6 | 1.4 |  |

| Substance | Average Magnitude of Response | Response Rate per Subject | further results |
| --- | --- | --- | --- |
| KQLKVSQIMEAARKL | 4.2 | 4.3 |  |
| TKKFDEVVKANGGYL | 24.3 | 4.3 |  |
| WCNEEDHLRIISMQM | 13.1 | 7.1 |  |
| DVLQWQTIPYTTIHN | 15.9 | 2.9 |  |
| RDMVRRCNNVGIRIY | 5.2 | 5.7 |  |
| Triosephosphate isomerase [TPI] |  |  | % (percentage of subjects responding to given antigen) (AR): 6%; SFC (mean magnitude of response) (AR): 13 SFC; % (percentage of subjects responding to given antigen) [1]: 11%; SFC (mean magnitude of response) [1]: 31 SFC; % (percentage of subjects responding to given antigen) (Controls): 2%; SFC (mean magnitude of response) (Controls): 17 SFC; % (percentage of subjects responding to given antigen) (IA): 6%; SFC (mean magnitude of response) (IA): 6 SFC; % (percentage of subjects responding to given antigen) (MMA): 11%; SFC (mean magnitude of response) (MMA): 83 SFC; % (percentage of subjects responding to given antigen) (SA): 23%; SFC (mean magnitude of response) (SA): 54 SFC; T cell reactivity (cytokine release) to NBGA, in words: Significant reactivity |
| LTVFDSTSCNVVVAS | 4.0 | 2.9 |  |
| QVYRRLVTAVNDIEK | 44.1 | 5.7 |  |
| LNTYYSYYYFNYPTF | 4.1 | 2.9 |  |
| LWEINMIKAIISQLQ | 3.5 | 2.9 |  |
| IQGKFGLDATAVGDE | 6.9 | 1.4 |  |
| RWRQIFNMVGFRNAV (listed as Blattella germanica) | 61.7 | 11.4 |  |
| PAYFKMNSPSLWKYN (listed as Blattella germanica) | 56.1 | 4.3 |  |
| VIYVQIRFSVRRFHP | 15.1 | 2.9 |  |
| IRGRTKFEGNKFTID (listed as Blattella germanica) | 75.5 | 5.7 |  |
| QPNLKALREKVLGLP | 6.5 | 5.7 |  |
| WVPSKKCHLTNIACL | 8.4 | 5.7 |  |
| TIPYYTKKFDEVVKA (listed as Blattella germanica) | 311.6 | 11.4 |  |
| AAVAYLQSDEFETIV | 3.2 | 1.4 |  |
| AGTWSALNSIQQFIS | 15.7 | 7.1 |  |
| LNIFTNNLGRINTHV (listed as Blattella germanica) | 57.6 | 4.3 |  |
| LNDYILPAPYEIYPW | 3.0 | 2.9 |  |
| VPIMNIYSAFEFDPN | 18.5 | 4.3 |  |
| GQEYTFYVIVTPYAK | 3.2 | 2.9 |  |
| EIDGKQTHQSVAISR | 3.8 | 4.3 |  |
| FLLSYGEKDFEDYRF | 8.5 | 8.6 |  |
